Drawing on patent publication US12583866B2, “Pyrido[2,3-b][1,4]oxazines or tetrahydropyrido[2,3-b][1,4]oxazepines as IAP antagonists” (BEIGENE, LTD., priority 2020, dated 2026), this text covers IC50 for 13 molecules.

Usually IC50 stands for the midpoint of a concentration-inhibition curve.

Where a name gives a salt, the structure may show the parent alone.

For experiment [1], the target named is T1, recombinant human cIAP2-BIR3 protein (Homo sapiens, UniProt Q13489).
T1 construct: recombinant human cIAP2-BIR3 protein; purchased Reaction biology APT-11-372
Description: Recombinant human c-IAP2-BIR3 biochemical assay (HTRF, peptide displacement). The settings on record: 3.7 nM cIAP2-BIR3, 3.7 nM AbuRPF-K(5-Fam)-NH2 peptide, read-out: Protein binding IC50 (nM) c-IAP2. The protocol:
II. Recombinant Human c-IAP2-BIR3 Biochemical Assay
(§1) Compounds disclosed herein were tested for blocking of recombinant human cIAP2-BIR3 protein (Cat: APT-11-372, Reaction biology) with its peptide in an assay based on Homogeneous Time Resolved Fluorescence. 3.7 nM recombinant human cIAP2-BIR3 protein was pre-incubated with a serial dilution of compounds disclosed herein (maximum concentration is 10 uM, 4-fold serially diluted, 10 points) at room temperature for 1 hour in an assay buffer containing 20 mM HEPES, pH 7.5, 50 mM NaCl, 0.005% Tween-20, 1 mM DTT. Then 3.7 nM AbuRPF-K(5-Fam)-NH2 (Cat: 709702, GL Biochem) was added to plate incubated at room temperature for 1 hour. Mab Anti-6His Tb cryptate Gold (Cat: 61HI2TLB, Cisbio Bioassays) was added to plate and further incubated at room temperature for 1 hour. The HTRF signals (ex337 nm, em520 nm/490 nm) were read on BMG PHERAstar FS instrument. The inhibition percentage of cIAP2-BIR3 interaction with its peptide in presence of increasing concentrations of compounds was calculated based on the ratio of fluorescence at 520 nm to that at 490 nm. The IC50 for each compound was derived from fitting the data to the four-parameter logistic equation by Dotmatics and summarized in table 1.
In general terms: TR-FRET usually uses a lanthanide donor and a delayed reading to cut background.

The target of experiment [2] is T2, recombinant human XIAP-BIR3 protein (Homo sapiens, UniProt P98170).
T2 construct: recombinant human XIAP-BIR3 protein; purchased Reaction biology APT-11-374
Kind of experiment: Recombinant human XIAP-BIR3 biochemical assay (HTRF, peptide displacement). To be noted: 3.7 nM XIAP-BIR3, 7.6 nM AbuRPF-K(5-Fam)-NH2 peptide, read-out: Protein binding IC50 (nM) XIAP. The protocol: III. Recombinant Human XIAP-BIR3 Biochemical Assay
as §1, with “human XIAP-BIR3” for “human cIAP2-BIR3”, “(Cat: APT-11-374,” for “(Cat: APT-11-372,”, “Then 7.6” for “Then 3.7”, “of XIAP-BIR3” for “of cIAP2-BIR3”

The target of experiment [3] is T3, recombinant human cIAP1-BIR3 protein (Homo sapiens, UniProt Q13490).
T3 construct: recombinant human cIAP1-BIR3 protein; purchased Reaction biology APT-11-370
Description: Recombinant human c-IAP1-BIR3 biochemical assay (HTRF, peptide displacement). To be noted: 1.2 nM cIAP1-BIR3, 3 nM AbuRPF-K(5-Fam)-NH2 peptide, read-out: Protein binding IC50 (nM) c-IAP1. As for the experimental part: I. Recombinant human c-IAP1-BIR3 biochemical assay
as §1, with “human cIAP1-BIR3” for “human cIAP2-BIR3”, “(Cat: APT-11-370,” for “(Cat: APT-11-372,”, “Fluorescence. 1.2” for “Fluorescence. 3.7”, “Then 3” for “Then 3.7”, “nM AbuRPF-K (5-Fam)-NH2” for “nM AbuRPF-K(5-Fam)-NH2”, “of cIAP1-BIR3” for “of cIAP2-BIR3”

T1 sequence (Q13489 238-349 limits assumed): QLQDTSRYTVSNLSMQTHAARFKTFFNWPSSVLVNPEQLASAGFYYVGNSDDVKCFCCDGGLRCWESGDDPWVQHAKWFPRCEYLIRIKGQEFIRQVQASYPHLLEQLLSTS
T2 sequence (P98170 241-356 limits assumed): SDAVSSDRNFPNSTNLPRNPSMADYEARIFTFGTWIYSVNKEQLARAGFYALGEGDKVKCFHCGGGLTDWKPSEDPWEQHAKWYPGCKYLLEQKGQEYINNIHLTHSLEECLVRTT
T3 sequence (Q13490 253-363 limits assumed): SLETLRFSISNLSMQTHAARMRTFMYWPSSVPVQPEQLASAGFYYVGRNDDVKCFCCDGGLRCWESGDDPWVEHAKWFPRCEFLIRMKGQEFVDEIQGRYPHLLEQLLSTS

With `C[C@@H]1CN(CC(=O)N2c3cc(Cc4ccc(F)cc4)cnc3OC[C@@H]2COCc2ccccc2)[C@@H](CN2[C@H](C)COC[C@H]2C)CN1` [Compound 23, 1-((S)-2-((benzyloxy)methyl)-7-(4-fluorobenzyl)-2,3-dihydro-1H-pyrido[2,3-b][1,4]oxazin-1-yl)-2-((2R,5R)-2-(((3R,5R)-3,5-dimethylmorpholino)methyl)-5-methylpiperazin-1-yl)ethan-1-one], the IC50 in experiment [1] came out at 0.18 nM; in experiment [2], 6.9 nM; in experiment [3], 0.13 nM.

With `C[C@@H]1CN(CC(=O)N2c3cc(Cc4ccc(F)cc4)cnc3OCC23CC3)[C@@H](CN2CCOC[C@H]2C)CN1` [Compound 20, 1-(7′-(4-fluorobenzyl)-1′H,3′H-spiro[cyclopropane-1,2′-pyrido[2,3-b][1,4]oxazin]-1′-yl)-2-((2R,5R)-5-methyl-2-(((R)-3-methylmorpholino)methyl)piperazin-1-yl)ethan-1-one hydrochloride], the figures for the IC50 in experiment [1], in experiment [2] and in experiment [3] were 25 nM, 140 nM and 9.9 nM, respectively.

Take `C[C@@H]1CN(CC(=O)N2CCOc3nc(C(F)(F)F)c(Cc4ccc(F)cc4)cc32)[C@@H](CN2CCOC[C@H]2C)CN1` [Compound 7, 1-(7-(4-fluorobenzyl)-6-(trifluoromethyl)-2,3-dihydro-1H-pyrido[2,3-b][1,4]oxazin-1-yl)-2-((2R,5R)-5-methyl-2-(((R)-3-methylmorpholino)methyl)piperazin-1-yl)ethan-1-one]: the IC50 stood at 6.8 nM in experiment [1], 99 nM in experiment [2] and 1.3 nM in experiment [3].

Turning to `C[C@@H]1CN(CC(=O)N2c3cc(Cc4ccc(F)cc4)cnc3OC[C@@H]2C)[C@@H](CN2[C@H](C)COC[C@H]2C)CN1` [Compound 22], the results for the half-maximal inhibitory concentration (IC50) in experiment [1], in experiment [2] and in experiment [3] were 0.21 nM, 3.97 nM and 0.13 nM, respectively.

Regarding `C[C@@H]1CN(CC(=O)N2c3cc(Cc4ccc(F)cc4)c(CO)nc3OC[C@@H]2C)[C@@H](CN2CCOCC23CCC3)CN1` [Compound 56, 2-((2R,5R)-2-((8-oxa-5-azaspiro[3.5]nonan-5-yl)methyl)-5-methylpiperazin-1-yl)-1-((S)-7-(4-fluorobenzyl)-6-(hydroxymethyl)-2-methyl-2,3-dihydro-1H-pyrido[2,3-b][1,4]oxazin-1-yl)ethan-1-one], the IC50 in experiment [1] is 2.2 nM; in experiment [2], 30 nM; in experiment [3], 1 nM.

For the molecule `C[C@@H]1CN(CC(=O)N2c3cc(Cc4ccc(F)cc4)cnc3OC[C@@H]2COc2ccccc2)[C@@H](CN2[C@H](C)COC[C@H]2C)CN1` [Compound 40, 2-((2R,5R)-2-(((3R,5R)-3,5-dimethylmorpholino)methyl)-5-methylpiperazin-1-yl)-1-((S)-7-(4-fluorobenzyl)-2-(phenoxymethyl)-2,3-dihydro-1H-pyrido[2,3-b][1,4]oxazin-1-yl)ethan-1-one], the IC50 in experiment [1] was determined as 0.14 nM; in experiment [2], 8.2 nM; in experiment [3], 0.09 nM.

`COCCNC(=O)c1nc2c(cc1Cc1ccc(F)cc1)N(C(=O)CN1C[C@@H](C)NC[C@@H]1CN1[C@H](C)COC[C@H]1C)[C@@H](C)CO2` [Example 66, (S)-1-(2-((2R,5R)-2-(((3R,5R)-3,5-dimethylmorpholino)methyl)-5-methylpiperazin-1-yl)acetyl)-7-(4-fluorobenzyl)-N-(2-methoxyethyl)-2-methyl-2,3-dihydro-1H-pyrido[2,3-b][1,4]oxazine-6-carboxamide]: the figures for the concentration for half-maximal inhibition (IC50) in experiment [1], in experiment [2] and in experiment [3] were 0.52 nM, 5.9 nM and 0.25 nM, respectively.

`C[C@@H]1CN(CC(=O)N2c3cc(Cc4ccc(F)cc4)c(C(N)=O)nc3OC[C@@H]2C)[C@@H](CN2CCOC[C@H]2C)CN1` [Compound 31, (S)-7-(4-fluorobenzyl)-2-methyl-1-(2-((2R,5R)-5-methyl-2-(((R)-3-methylmorpholino)methyl)piperazin-1-yl)acetyl)-2,3-dihydro-1H-pyrido[2,3-b][1,4]oxazine-6-carboxamide]: the IC50 stood at 0.71 nM in experiment [1], 5.6 nM in experiment [2] and 0.33 nM in experiment [3].

Regarding `CCOC[C@H]1COc2ncc(Cc3ccc(F)cc3)cc2N1C(=O)CN1C[C@@H](C)NC[C@@H]1CN1CCOC[C@H]1C` [Compound 37, 1-((S)-2-(ethoxymethyl)-7-(4-fluorobenzyl)-2,3-dihydro-1H-pyrido[2,3-b][1,4]oxazin-1-yl)-2-((2R,5R)-5-methyl-2-(((R)-3-methylmorpholino)methyl)piperazin-1-yl)ethan-1-one], the values for the 50% inhibitory concentration (IC50) in experiment [1], in experiment [2] and in experiment [3] were 0.66 nM, 43 nM and 0.29 nM, respectively.

With `C[C@@H]1CN(CC(=O)N2c3cc(Cc4ccc(F)cc4)c(NC(=O)C4CC4)nc3OC[C@@H]2C)[C@@H](CN2[C@H](C)COC[C@H]2C)CN1` [Compound 119, N—((S)-1-(2-((2R,5R)-2-(((3R,5R)-3,5-dimethylmorpholino)methyl)-5-methylpiperazin-1-yl)acetyl)-7-(4-fluorobenzyl)-2-methyl-2,3-dihydro-1H-pyrido[2,3-b][1,4]oxazin-6-yl)cyclopropanecarboxamide], the IC50 was 0.35 nM in experiment [1], 4.4 nM in experiment [2] and 0.2 nM in experiment [3].

On to `COCCC(=O)Nc1nc2c(cc1Cc1ccc(F)cc1)N(C(=O)CN1C[C@@H](C)NC[C@@H]1CN1[C@H](C)COC[C@H]1C)[C@@H](C)CO2` [Compound 121], for which the IC50 in experiment [1] is 0.27 nM; in experiment [2], 4.2 nM; in experiment [3], 0.2 nM.

`C[C@@H]1CN(CC(=O)N2c3cc(Cc4ccc(F)cc4F)c(C(N)=O)nc3OC[C@@H]2C)[C@@H](CN2[C@H](C)COC[C@H]2C)CN1` [Example 83, (S)-7-(2,4-difluorobenzyl)-1-(2-((2R,5R)-2-(((3R,5R)-3,5-dimethylmorpholino)methyl)-5-methylpiperazin-1-yl)acetyl)-2-methyl-2,3-dihydro-1H-pyrido[2,3-b][1,4]oxazine-6-carboxamide]: the IC50 in experiment [1] amounted to 0.4 nM; in experiment [2] it was 7.2 nM; in experiment [3], 0.2 nM.

`C[C@@H]1CN(CC(=O)N2c3cc(Cc4ccc(F)cc4)c(CO)nc3OC[C@@H]2C)[C@@H](CN2CCOC[C@H]2C2CC2)CN1` [Example 84A, 2-((2R,5R)-2-(((R)-3-cyclopropylmorpholino)methyl)-5-methylpiperazin-1-yl)-1-((S)-7-(4-fluorobenzyl)-6-(hydroxymethyl)-2-methyl-2,3-dihydro-1H-pyrido[2,3-b][1,4]oxazin-1-yl)ethan-1-one]: the results for the IC50 in experiment [1], in experiment [2] and in experiment [3] were 0.44 nM, 6.4 nM and 0.29 nM, respectively.
